Test results reported in patent US10508120B2, “TYK2 inhibitors and uses thereof” (Nimbus Lakshmi, Inc., priority 2017, dated 2019).

The compounds below were run against human TYK2 (JH2domain-pseudokinase) (Homo sapiens (Human), UniProt P29597) (assay: TYK2 JH2 Domain Binding Assay (KINOMEscan)).
Protocol: Binding constants for compounds of the present invention against the JH2 domain were determined by the following protocol for a KINOMEscan® assay (DiscoveRx). A fusion protein of a partial length construct of human TYK2 (JH2domain-pseudokinase) (amino acids G556 to D888 based on reference sequence NP_003322.3) and the DNA binding domain of NFkB was expressed in transiently transfected HEK293 cells. From these HEK 293 cells, extracts were prepared in M-PER extraction buffer (Pierce) in the presence of Protease Inhibitor Cocktail Complete (Roche) and Phosphatase Inhibitor Cocktail Set II (Merck) per manufacturers' instructions. The TYK2 (JH2domain-pseudokinase) fusion protein was labeled with a chimeric double-stranded DNA tag containing the NFkB binding site (5′-[…]-3′) fused to an amplicon for qPCR readout, which was added directly to the expression extract (the final concentration of DNA-tag in the binding reaction is 0.1 nM).
The liganded beads were blocked with excess biotin and washed with blocking buffer (SeaBlock (Pierce), 1% BSA, 0.05% Tween 20, 1 mM DTT) to remove unbound ligand and to reduce nonspecific binding.
Extracts were used directly in binding assays without any enzyme purification steps at a ≥10,000-fold overall stock dilution (final DNA-tagged enzyme concentration <0.1 nM). Extracts were loaded with DNA-tag and diluted into the binding reaction in a two step process. First extracts were diluted 1:100 in 1× binding buffer (PBS/0.05% Tween 20/10 mM DTT/0.1% BSA/2 μg/ml sonicated salmon sperm DNA) containing 10 nM DNA-tag. This dilution was allowed to equilibrate at room temperature for 15 minutes and then subsequently diluted 1:100 in 1× binding buffer. […] Kds were determined using an 11-point 3-fold compound dilution series with three DMSO control points. […] The compounds were then diluted directly into the assays such that the final concentration of DMSO was 0.9%. All reactions performed in polypropylene 384-well plates. Each was a final volume of 0.02 mL. Assays were incubated with shaking for 1 hour at room temperature. Then the beads were pelleted and washed with wash buffer (1×PBS, 0.05% Tween 20) to remove displaced kinase and test compound. […] The qPCR protocol consisted of a 10 minute hot start at 95° C., followed by 35 cycles of 95° C. for 15 seconds, 60° C. for 1 minute.
Kds were determined using an 11-point 3-fold compound dilution series with three DMSO control points. […] The compounds were then diluted directly into the assays such that the final concentration of DMSO was 0.9%. The Kds were determined using a compound top concentration of 30,000 nM. Kd measurements were performed in duplicate.
Binding constants (Kds) were calculated with a standard dose-response curve using the Hill equation: […]
The Hill Slope was set to −1.

Chain of human TYK2 (JH2domain-pseudokinase) (P29597 556-888): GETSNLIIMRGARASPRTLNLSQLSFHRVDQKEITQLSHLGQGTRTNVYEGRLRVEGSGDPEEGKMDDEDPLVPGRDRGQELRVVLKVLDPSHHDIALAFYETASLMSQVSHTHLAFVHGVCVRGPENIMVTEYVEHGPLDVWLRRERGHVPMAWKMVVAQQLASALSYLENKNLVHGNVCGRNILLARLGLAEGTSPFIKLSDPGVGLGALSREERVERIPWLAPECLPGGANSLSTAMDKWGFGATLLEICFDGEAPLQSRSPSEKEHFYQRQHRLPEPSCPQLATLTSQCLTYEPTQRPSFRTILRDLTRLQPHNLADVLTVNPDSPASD

First: CNc1cc(Nc2cccn(-c3nc(C)co3)c2=O)nc2c(C(=O)NC(C)(C)C#N)cnn12 [I-1260]
Second: CNc1cc(Nc2cccn(-c3nn(C)cc3F)c2=O)nc2c(C(=O)NC3CC3)cnn12 [I-1275]
The Kd of the first is higher: 0.2 to 1 nM for the first, < 0.2 nM for the second.

First: CNc1cc(Nc2cccn3ccnc23)nc2c(C(=O)N[C@@H]3COC[C@@H]3O)cnn12 [I-1261]
Second: CNc1cc(Nc2cccn3ccnc23)nc2c(C(=O)N[C@H]3COC[C@H]3O)cnn12 [I-1262]
The Kd of the first is lower: 0.2 to 1 nM for the first, 1 to 10 nM for the second.

First: CNc1cc(Nc2cccn(C3CCOCC3)c2=O)nc2c(C(=O)N[C@H]3CC[C@@H](O)C3)cnn12 [I-1263]
Second: CNc1cc(Nc2cccn(C3CCOCC3)c2=O)nc2c(C(=O)N[C@@H]3CC[C@H](O)C3)cnn12 [I-1264]
The Kd of the first is lower: < 0.2 nM for the first, 1 to 10 nM for the second. The first binds more tightly here.

First: CNc1cc(Nc2cccn(C(C)C)c2=O)nc2c(C(=O)N[C@H]3CC[C@@H](O)C3)cnn12 [I-1265]
Second: CNc1cc(Nc2cccn(C(C)C)c2=O)nc2c(C(=O)N[C@@H]3CC[C@H](O)C3)cnn12 [I-1266]
The Kd of the first is higher: 1 to 10 nM for the first, < 0.2 nM for the second. The second binds more tightly here.

First: CNc1cc(-c2cn([C@@H]3CCCOC3)c3ncccc23)nc2c(C(=O)N[C@@H]3CC[C@H]3OC)cnn12 [I-1267]
Second: CNc1cc(-c2cn([C@@H]3CCCOC3)c3ncccc23)nc2c(C(=O)N[C@H]3CC[C@@H]3OC)cnn12 [I-1268]
The Kd of the first is lower: < 0.2 nM for the first, > 10 nM for the second. The first binds more tightly here.

First: CNc1cc(Nc2cccn([C@@H]3CCCOC3)c2=O)nc2c(C(=O)N[C@@H]3C[C@H]3OC)cnn12 [I-1269]
Second: CNc1cc(Nc2cccn([C@@H]3CCCOC3)c2=O)nc2c(C(=O)N[C@H]3C[C@@H]3OC)cnn12 [I-1270]
The Kd of the first is lower: 0.2 to 1 nM for the first, 1 to 10 nM for the second. The first binds more tightly here.

Compared with `CNc1cc(Nc2cccn([C@H]3C[C@@H]3OC)c2=O)nc2c(C(=O)NC3CC3)cnn12` [I-1271], `CNc1cc(Nc2cccn([C@H]3C[C@@H]3OC)c2=O)nc2c(C(=O)N[C@@H]3C[C@@H]3F)cnn12` [I-1272] is higher in Kd: < 0.2 nM for the first, 1 to 10 nM for the second.

First: CNc1cc(-c2cn(C3CCOCC3)c3ncccc23)nc2c(C(=O)N[C@H]3CCCC[C@]3(C)O)cnn12 [I-1273]
Second: CNc1cc(-c2cn(C3CCOCC3)c3ncccc23)nc2c(C(=O)N[C@H]3CCC[C@]3(C)O)cnn12 [I-1336]
The Kd of the first is higher: > 10 nM for the first, 1 to 10 nM for the second.

First: CNc1cc(Nc2cccn(C(C)C)c2=O)nc2c(C(=O)N[C@@H]3CCCC[C@@]3(C)O)cnn12 [I-1276]
Second: CNc1cc(Nc2cccn(C(C)C)c2=O)nc2c(C(=O)N[C@H]3CCCC[C@]3(C)O)cnn12 [I-1277]
The Kd of the first is higher: 0.2 to 1 nM for the first, < 0.2 nM for the second. The second binds more tightly here.

First: CNc1cc(Nc2cccn([C@H]3C[C@@H]3F)c2=O)nc2c(C(=O)N[C@H]3CC[C@@H]3O)cnn12 [I-1278]
Second: CNc1cc(Nc2cccn([C@H]3C[C@@H]3F)c2=O)nc2c(C(=O)N[C@@H]3CC[C@H]3O)cnn12 [I-1279]
The Kd of the first is higher: 0.2 to 1 nM for the first, < 0.2 nM for the second.

Compared with `CNc1cc(-c2cn(C3CC3)c3ncccc23)nc2c(C(=O)N[C@@H]3CCC[C@@]3(C)O)cnn12` [I-1280], `CNc1cc(-c2cn(C3CC3)c3ncccc23)nc2c(C(=O)N[C@H]3CCC[C@]3(C)O)cnn12` [I-1281] is higher in Kd: < 0.2 nM for the first, 0.2 to 1 nM for the second. The first binds more tightly here.

First: CNc1cc(-c2cn([C@H]3CCCOC3)c3ncccc23)nc2c(C(=O)N[C@@H]3CC[C@H]3OC)cnn12 [I-1282]
Second: CNc1cc(-c2cn(C3CCOCC3)c3ncccc23)nc2c(C(=O)N[C@H]3CC[C@@H]3OC)cnn12 [I-1329]
The Kd of the first is lower: 1 to 10 nM for the first, > 10 nM for the second.

`CNc1cc(Nc2cccn([C@H]3CC[C@H]3O)c2=O)nc2c(C(=O)N[C@@H]3C[C@@H]3F)cnn12` [I-1284] and `CNc1cc(Nc2cccn([C@H]3CC[C@H]3O)c2=O)nc2c(C(=O)N[C@@H]3CC[C@H]3OC)cnn12` [I-1344] fall in the same range of Kd: 0.2 to 1 nM for the first, 0.2 to 1 nM for the second.

`CNc1cc(Nc2cccn(-c3ccccn3)c2=O)nc2c(C(=O)N[C@H]3C[C@@H]3OC)cnn12` [I-1287] and `CCO[C@@H]1CC[C@H]1NC(=O)c1cnn2c(NC)cc(Nc3cccn(-c4ccccn4)c3=O)nc12` [I-1294] cannot be ordered by Kd: < 0.2 nM for the first, < 0.2 nM for the second.

First: CNc1cc(Nc2cccn(-c3cccnc3)c2=O)nc2c(C(=O)N[C@@H]3CCC[C@@H](OC)C3)cnn12 [I-1288]
Second: CNc1cc(Nc2cccn(-c3ccc(C)nc3)c2=O)nc2c(C(=O)N[C@H]3CCC[C@H](OC)C3)cnn12 [I-1289]
The Kd of the first is lower: < 0.2 nM for the first, 1 to 10 nM for the second. The first binds more tightly here.

First: CNc1cc(Nc2cccn(C3CCOCC3)c2=O)nc2c(C(=O)N[C@@H]3CCC[C@@H](O)C3)cnn12 [I-1290]
Second: CNc1cc(Nc2cccn(C3CCOCC3)c2=O)nc2c(C(=O)N[C@@H]3CCC[C@@H](OC)C3)cnn12 [I-1297]
The Kd of the first is higher: > 10 nM for the first, 0.2 to 1 nM for the second.

First: CNc1cc(Nc2cccn([C@H]3CC[C@@H](OC)CC3)c2=O)nc2c(C(=O)N[C@H]3CC[C@@H]3O)cnn12 [I-1291]
Second: CNc1cc(Nc2cccn([C@H]3CC[C@@H](OC)CC3)c2=O)nc2c(C(=O)N[C@H]3CC[C@H]3O)cnn12 [I-1292]
The Kd of the first is higher: 1 to 10 nM for the first, < 0.2 nM for the second.

First: CNc1cc(-c2cn(CCCO)c3ncc(F)cc23)nc2c(C(=O)N[C@H]3CC[C@@H]3OC)cnn12 [I-1298]
Second: CNc1cc(-c2cn(CCCO)c3ncccc23)nc2c(C(=O)N[C@H]3CC[C@@H]3OC)cnn12 [I-1300]
The Kd of the first is higher: > 10 nM for the first, 1 to 10 nM for the second.

First: CNc1cc(Nc2cccn(C(C)C)c2=O)nc2c(C(=O)N[C@@H]3COC[C@@H]3O)cnn12 [I-1301]
Second: CNc1cc(Nc2cccn(C(C)C)c2=O)nc2c(C(=O)N[C@H]3COC[C@H]3O)cnn12 [I-1302]
The Kd of the first is higher: 0.2 to 1 nM for the first, < 0.2 nM for the second.

First: CNc1cc(Nc2cccn(-c3cccc(F)c3)c2=O)nc2c(C(=O)N[C@@H]3COC[C@@H]3O)cnn12 [I-1303]
Second: CNc1cc(Nc2cccn(-c3cccc(F)c3)c2=O)nc2c(C(=O)N[C@H]3COC[C@H]3O)cnn12 [I-1304]
The Kd of the first is higher: 1 to 10 nM for the first, 0.2 to 1 nM for the second. The second binds more tightly here.

First: CNc1cc(Nc2cccn(C3CC(F)(F)C3)c2=O)nc2c(C(=O)N[C@@H]3CC[C@@H]3O)cnn12 [I-1305]
Second: CNc1cc(Nc2cccn(C3CC(F)(F)C3)c2=O)nc2c(C(=O)N[C@H]3CC[C@H]3O)cnn12 [I-1306]
The Kd of the first is lower: 0.2 to 1 nM for the first, 1 to 10 nM for the second. The first binds more tightly here.

Going from `CNc1cc(-c2cn(C3CCOCC3)c3ncccc23)nc2c(C(=O)N[C@@H]3COC[C@@H]3O)cnn12` [I-1307] to `CNc1cc(-c2cn(C3CCOCC3)c3ncccc23)nc2c(C(=O)N[C@H]3COC[C@H]3O)cnn12` [I-1308], the Kd rises from < 0.2 nM to > 10 nM. The first binds more tightly here.

First: CNc1cc(Nc2cccn3ccnc23)nc2c(C(=O)N[C@H]3COC[C@H]3O)cnn12 [I-1313]
Second: CNc1cc(Nc2cccn3ccnc23)nc2c(C(=O)N[C@H]3CCC[C@]3(C)O)cnn12 [I-1316]
The Kd of the first is higher: > 10 nM for the first, 1 to 10 nM for the second. The second binds more tightly here.

`CNC(=O)c1occc1Nc1cc(NC)n2ncc(C(=O)N[C@@H]3CC[C@H]3OC)c2n1` [I-1322] and `CNc1cc(Nc2cccn3cnnc23)nc2c(C(=O)N[C@@H]3CC[C@H]3OC)cnn12` [I-1342] cannot be ordered by Kd: < 0.2 nM for the first, < 0.2 nM for the second.

`CNc1cc(Nc2cc3cccnc3n2C2CC2)nc2c(C(=O)N[C@@H]3CC[C@H]3OC)cnn12` [I-1324] and `CNc1cc(Nc2cccn([C@H]3CC[C@H]3O)c2=O)nc2c(C(=O)N[C@H]3CC[C@@H]3OC)cnn12` [I-1345] cannot be ordered by Kd: < 0.2 nM for the first, < 0.2 nM for the second.

`CNc1cc(-c2cn(C(C)C)c3ncccc23)nc2c(C(=O)N[C@@H]3CC[C@]3(C)O)cnn12` [I-1326] and `CNc1cc(-c2cn(C(C)C)c3ncccc23)nc2c(C(=O)N[C@H]3CC[C@@]3(C)O)cnn12` [I-1327] cannot be ordered by Kd: < 0.2 nM for the first, < 0.2 nM for the second.

First: CNc1cc(Nc2cccn([C@@H]3CCC[C@@H](OC)C3)c2=O)nc2c(C(=O)N[C@@H]3CC[C@H]3OC)cnn12 [I-1330]
Second: CNc1cc(Nc2cccn([C@@H]3CCCC[C@@H]3O)c2=O)nc2c(C(=O)N[C@H]3CC[C@@H]3OC)cnn12 [I-1338]
The Kd of the first is lower: < 0.2 nM for the first, 0.2 to 1 nM for the second. The first binds more tightly here.

Compared with `CNc1cc(Nc2cccn([C@@H]3CCN(CCF)C3)c2=O)nc2c(C(=O)N[C@H]3CC[C@@H]3OC)cnn12` [I-1332], `CNc1cc(Nc2cccn([C@@H]3CCCC[C@@H]3O)c2=O)nc2c(C(=O)N[C@@H]3CC[C@H]3OC)cnn12` [I-1339] is lower in Kd: 1 to 10 nM for the first, 0.2 to 1 nM for the second. The second binds more tightly here.

`CNc1cc(-c2cn(C3CC3)c3ncccc23)nc2c(C(=O)N[C@H]3CCC[C@]3(C)O)cnn12` [I-1335] and `CNc1cc(Nc2cccn(C(C)C)c2=O)nc2c(C(=O)N[C@@H]3CCC[C@@](C)(O)C3)cnn12` [I-1337] cannot be ordered by Kd: < 0.2 nM for the first, < 0.2 nM for the second.

In the case of `CNc1cc(Nc2cccn([C@@H]3CCCN(CCC#N)C3)c2=O)nc2c(C(=O)NC3CC3)cnn12` [I-1346, (R)-5-((1-(1-(2-cyanoethyl)piperidin-3-yl)-2-oxo-1,2-dihydropyridin-3-yl)amino)-N-cyclopropyl-7-(methylamino)pyrazolo[1,5-a]pyrimidine-3-carboxamide], the Kd is reported as < 0.2 nM.
